Laboratory results reported in ChEMBL document CHEMBL1128913, “Synthesis and in vitro cytotoxicity of cryptophycins and related analogs” (Bioorg Med Chem Lett, 1996).
pIC50: −log10 of the molar value. Converted amounts (≈) assume the structure as drawn.

Assays:
Format in all cases: functional, cell-based
B16-F10 = assay: Cytotoxic activity against B16F10 mouse melanoma cells
DA-3 cell line = assay: Cytotoxic activity against DA-3 mouse mammary adenocarcinoma cells
HT-29 = assay: Cytotoxic activity against HT-29 human colon adenocarcinoma cells
KB [1] = assay: Cytotoxic activity against KBV vinblastine resistant KB cells; settings: Homo sapiens
KB [2] = assay: Cytotoxic activity against KB human nasopharyngeal carcinoma cells
KB [3] = assay: Cytotoxic activity against Human nasopharyngeal KB cell line

Structure (SMILES)	pIC50 (B16-F10)	pIC50 (DA-3 cell line)	pIC50 (HT-29)	pIC50 (KB [1])	pIC50 (KB [2])	IC50 (KB [3]) [ng/mL]
COc1ccc(C[C@H]2NC(=O)/C=C/C[C@@H](C(C#Cc3ccccc3)OS(C)(=O)=O)OC(=O)[C@H](CC(C)C)OC(=O)CCNC2=O)cc1 (stereo partly specified)	< 8.00	< 8.00	< 8.00	< 8.00	< 8.00	
COc1ccc(C[C@H]2NC(=O)/C=C/C[C@@H](C(O)CCc3ccccc3)OC(=O)[C@H](CC(C)C)OC(=O)[C@H](C)CNC2=O)cc1 (stereo partly specified)	< 8.00	< 8.00	< 8.00	< 8.00	< 8.00	
COc1ccc(C[C@H]2NC(=O)/C=C/C[C@@H](C(=O)C#Cc3ccccc3)OC(=O)[C@H](CC(C)C)OC(=O)[C@@H](C)CNC2=O)cc1	< 8.00	< 8.00	< 8.00	< 8.00	< 8.00	
COc1ccc(C[C@H]2NC(=O)/C=C/C[C@@H](C(O)C#Cc3ccccc3)OC(=O)[C@H](CC(C)C)OC(=O)[C@@H](C)CNC2=O)cc1 (stereo partly specified)	< 8.00	< 8.00	< 8.00	< 8.00	< 8.00	
COc1ccc(C[C@H]2NC(=O)/C=C/C[C@@H](C(O)C#Cc3ccccc3)OC(=O)[C@H](CC(C)C)OC(=O)CCNC2=O)cc1 (stereo partly specified)	< 8.00	< 8.00	< 8.00	< 8.00	< 8.00	
COc1ccc(C[C@H]2NC(=O)/C=C/C[C@@H](C(Br)C#Cc3ccccc3)OC(=O)[C@H](CC(C)C)OC(=O)[C@@H](C)CNC2=O)cc1 (stereo partly specified)	< 8.00	< 8.00	< 8.00	< 8.00	< 8.00	
COc1ccc(C[C@H]2NC(=O)/C=C/C[C@@H]([C@@](C)(O)/C=C\c3ccccc3)OC(=O)[C@H](CC(C)C)OC(=O)CCNC2=O)cc1	< 8.00	< 8.00	< 8.00	< 8.00	< 8.00	
COc1ccc(C[C@H]2NC(=O)/C=C/C[C@@H](CCCc3ccccc3)OC(=O)[C@H](CC(C)C)OC(=O)CCNC2=O)cc1Cl	< 8.00	< 8.00	< 8.00	< 8.00	< 8.00	
COc1ccc(C[C@H]2NC(=O)/C=C/C[C@@H]([C@@H](C)/C=C/c3ccccc3)OC(=O)[C@H](CC(C)C)OC(=O)[C@H](C)CNC2=O)cc1	< 8.00	< 8.00	< 8.00	< 8.00	< 8.00	
COc1ccc(C[C@H]2NC(=O)/C=C/C[C@@H](C(Br)C#Cc3ccccc3)OC(=O)[C@H](CC(C)C)OC(=O)CCNC2=O)cc1 (stereo partly specified)	< 8.00	< 8.00	< 8.00	< 8.00	< 8.00	
COc1ccc(C[C@H]2NC(=O)/C=C/C[C@@H](CC#Cc3ccccc3)OC(=O)[C@H](CC(C)C)OC(=O)[C@@H](C)CNC2=O)cc1	< 8.00	< 8.00	< 8.00	< 8.00	< 8.00	
COc1ccc(C[C@H]2NC(=O)/C=C/C[C@@H](C(O)/C=C/c3ccccc3)OC(=O)[C@H](CC(C)C)OC(=O)[C@H](C)CNC2=O)cc1 (stereo partly specified)	< 8.00	< 8.00	< 8.00	< 8.00	< 8.00	
COc1ccc(C[C@H]2NC(=O)/C=C/C[C@@H]([C@H](C)[C@H]3O[C@@H]3c3ccccc3)OC(=O)[C@H](CC(C)C)OC(=O)[C@H](C)CNC2=O)cc1	9.52	9.70	9.52	9.10	9.52	
COc1ccc(C[C@H]2NC(=O)/C=C/C[C@@H]([C@@](C)(O)C#Cc3ccccc3)OC(=O)[C@H](CC(C)C)OC(=O)CCNC2=O)cc1	< 8.00	< 8.00	< 8.00	< 8.00	< 8.00	
COc1ccc(C[C@H]2NC(=O)/C=C/C[C@@H](C/C=C/c3ccccc3)OC(=O)[C@H](CC(C)C)OC(=O)[C@H](C)CNC2=O)cc1Cl	< 8.00	< 8.00	< 8.00	< 8.00	< 8.00	
COc1ccc(C[C@H]2NC(=O)/C=C/C[C@@H]([C@H](C)/C=C/c3ccccc3)OC(=O)[C@H](CC(C)C)OC(=O)[C@H](C)CNC2=O)cc1	< 8.00	< 8.00	< 8.00	< 8.00	< 8.00	
COc1ccc(C[C@H]2NC(=O)/C=C/C[C@@H](CCCc3ccccc3)OC(=O)[C@H](CC(C)C)OC(=O)CCNC2=O)cc1	< 8.00	< 8.00	< 8.00	< 8.00	< 8.00	
COc1ccc(C[C@H]2NC(=O)/C=C/C[C@@H](C(/C=C/c3ccccc3)OC(C)=O)OC(=O)[C@H](CC(C)C)OC(=O)[C@H](C)CNC2=O)cc1 (stereo partly specified)	< 8.00	< 8.00	< 8.00	< 8.00	< 8.00	
COc1ccc(C[C@H]2NC(=O)/C=C/C[C@@H](C(=O)CCc3ccccc3)OC(=O)[C@H](CC(C)C)OC(=O)CCNC2=O)cc1	< 8.00	< 8.00	< 8.00	< 8.00	< 8.00	

Structure (SMILES)	pIC50 (B16-F10)	pIC50 (DA-3 cell line)	pIC50 (HT-29)	pIC50 (KB [1])	pIC50 (KB [2])	IC50 (KB [3]) [ng/mL]
COc1ccc(C[C@H]2NC(=O)/C=C/C[C@@H](C(Br)C#Cc3ccccc3)OC(=O)[C@H](CC(C)C)OC(=O)[C@H](C)CNC2=O)cc1 (stereo partly specified)	< 8.00	< 8.00	< 8.00	< 8.00	< 8.00	
COc1ccc(C[C@H]2NC(=O)/C=C/C[C@@H](C/C=C/c3ccccc3)OC(=O)[C@H](CC(C)C)OC(=O)[C@H](C)CNC2=O)cc1	< 8.00	< 8.00	< 8.00	< 8.00	< 8.00	
COc1ccc(C[C@H]2NC(=O)/C=C/C[C@@H](C(=O)/C=C/c3ccccc3)OC(=O)[C@H](CC(C)C)OC(=O)[C@H](C)CNC2=O)cc1Cl	< 8.00	< 8.00	< 8.00	< 8.00	< 8.00	
COc1ccc(C[C@H]2NC(=O)/C=C/C[C@@H](C(=O)C#Cc3ccccc3)OC(=O)[C@H](CC(C)C)OC(=O)[C@H](C)CNC2=O)cc1	< 8.00	< 8.00	< 8.00	< 8.00	< 8.00	
COc1ccc(C[C@H]2NC(=O)/C=C/C[C@@H](C(O)/C=C/c3ccccc3)OC(=O)[C@H](CC(C)C)OC(=O)CCNC2=O)cc1 (stereo partly specified)	< 8.00	< 8.00	< 8.00	< 8.00	< 8.00	
COc1ccc(C[C@H]2NC(=O)/C=C/C[C@@H](C(=O)/C=C/c3ccccc3)OC(=O)[C@H](CC(C)C)OC(=O)[C@H](C)CNC2=O)cc1	< 8.00	< 8.00	< 8.00	< 8.00	< 8.00	
COc1ccc(C[C@H]2NC(=O)/C=C/C[C@@H]([C@](C)(O)C#Cc3ccccc3)OC(=O)[C@H](CC(C)C)OC(=O)CCNC2=O)cc1	< 8.00	< 8.00	< 8.00	< 8.00	< 8.00	
COc1ccc(C[C@H]2NC(=O)/C=C/C[C@@H](C(=O)/C=C\c3ccccc3)OC(=O)[C@H](CC(C)C)OC(=O)CCNC2=O)cc1	< 8.00	< 8.00	< 8.00	< 8.00	< 8.00	
COc1ccc(C[C@H]2NC(=O)/C=C/C[C@@H](C(=O)C#Cc3ccccc3)OC(=O)[C@H](CC(C)C)OC(=O)CCNC2=O)cc1	< 8.00	< 8.00	< 8.00	< 8.00	< 8.00	
COc1ccc(C[C@H]2NC(=O)/C=C/C[C@@H](C(=O)/C=C/c3ccccc3)OC(=O)[C@H](CC(C)C)OC(=O)CCNC2=O)cc1	< 8.00	< 8.00	< 8.00	< 8.00	< 8.00	
COc1ccc(C[C@H]2NC(=O)/C=C/C[C@@H](C(C#Cc3ccccc3)OS(C)(=O)=O)OC(=O)[C@H](CC(C)C)OC(=O)[C@@H](C)CNC2=O)cc1 (stereo partly specified)	< 8.00	< 8.00	< 8.00	< 8.00	< 8.00	
COc1ccc(C[C@H]2NC(=O)/C=C/C[C@@H]([C@](C)(O)/C=C\c3ccccc3)OC(=O)[C@H](CC(C)C)OC(=O)CCNC2=O)cc1	< 8.00	< 8.00	< 8.00	< 8.00	< 8.00	
COc1ccc(C[C@H]2NC(=O)/C=C/C[C@@H](C(=O)[C@H]3O[C@@H]3c3ccccc3)OC(=O)[C@H](CC(C)C)OC(=O)[C@H](C)CNC2=O)cc1	< 8.00	< 8.00	< 8.00	< 8.00	< 8.00	
COc1ccc(C[C@H]2NC(=O)/C=C/C[C@@H](C[C@H]3O[C@@H]3c3ccccc3)OC(=O)[C@H](CC(C)C)OC(=O)[C@H](C)CNC2=O)cc1	< 8.00	8.52	8.40	< 8.00	8.22	
COc1ccc(C[C@H]2NC(=O)/C=C/C[C@@H]([C@@H](C)[C@H]3O[C@@H]3c3ccccc3)OC(=O)[C@H](CC(C)C)OC(=O)[C@H](C)CNC2=O)cc1	< 8.40	< 8.00	8.52	< 8.00	< 8.00	
COc1ccc(C[C@H]2NC(=O)/C=C/C[C@@H](C(C#Cc3ccccc3)OS(C)(=O)=O)OC(=O)[C@H](CC(C)C)OC(=O)[C@H](C)CNC2=O)cc1 (stereo partly specified)	< 8.00	< 8.00	< 8.00	< 8.00	< 8.00	
COc1ccc(C[C@H]2NC(=O)/C=C/C[C@@H](C(O)CCc3ccccc3)OC(=O)[C@H](CC(C)C)OC(=O)CCNC2=O)cc1 (stereo partly specified)	< 8.00	< 8.00	< 8.00	< 8.00	< 8.00	
COc1ccc(C[C@H]2NC(=O)/C=C/C[C@@H]([C@H](C)/C=C/c3ccccc3)OC(=O)[C@H](CC(C)C)OC(=O)[C@H](C)CNC2=O)cc1Cl [CRYPTOPHYCIN 3]	8.70	9.00	9.00	8.30	8.70	3 (≈ 4.69 nM)
